# Columns and labels:
# N-Myc-Max complex = target: T1, N-Myc-Max complex (Homo sapiens, UniProt P04198+P61244); experiment: Microscale thermophoresis (MST) binding; conditions: for binding to N-Myc-Max complex (in words): MST
# T1 construct: N-Myc (amino acids 309–394) and Max (amino acids 12–93); 6xHis (N); made in house; host or cells: E. coli BL21
# Excerpt: We first performed a microscale thermophoresis (MST) assay to validate the direct binding of VPC-70619 to the recombinant N-Myc-Max complex and to calculate the binding affinity. We evaluated the effect of increasing concentrations of 70619 on the movement of a fluorescent labelled N-Myc-Max complex through a temperature gradient induced by an infrared laser.
# The bHLHLZ domain of N-Myc (amino acids 309–394) and Max (amino acids 12–93) protein sequences were cloned into pETDuet with an N-terminal 6×His. pETDuet-His-NMyc-Max was transformed and expressed in E. coli BL21 and induced with 0.5 mM isopropyl-β-D-thiogalactopyranoside (IPTG) at 16 °C overnight. The cultures were lysed by sonication and combined for purification by immobilized metal ion chromatography (IMAC) with nickel-nitrilotriacetic acid (Ni-NTA) resin. The bound proteins were eluted from the column with 20 mM Tris, pH = 8, 500 mM NaCl, 5% glycerol, 300 mM imidazole, 5 mM βMe, and 0.1 mM PMSF. Size exclusion chromatography with Superdex 75 was used to increase the purity of the N-Myc-Max protein sample. The purified protein complex was used in subsequent BLI and MST experiments.
# An MST assay was conducted to determine the binding affinity of 70619 to the purified N-Myc-Max protein complex. N-Myc-Max protein samples were labeled with the red fluorescent dye NT647 using the Monolith NT Protein labeling kit RED-NHS amine-reactive (NanoTemper Technologies, München, Germany); 70619 was serial diluted with 100% DMSO and mixed with the labeled fluorescent N-Myc-Max (final concentration of protein: 5 nM) in the assay reaction buffer (20 mM Tris, pH = 8, 100 mM NaCl, 0.2 mM TCEP, 0.1 mM PMSF, 5% glycerol) starting at 600 μM, with a final concentration of DMSO of 5%. The protein/inhibitor solution was mixed and incubated at room temperature in the dark for 5 min before being filled into the capillaries. […] Analysis of the data for Kd estimation was calculated with the MO Affinity Analysis software from Nanotemper (München, Germany).
# IMR32 cells = experiment: Cell viability (CellTiter-Glo), IMR32; assay type: cell-based; conditions: Homo sapiens, IMR-32
# Protocol: The 54 compounds were tested at 10 µM for their inhibition of the IMR32 human neuroblastoma cell line, in which the MYCN gene is amplified and actively expressed (Table 3). HO15.19 cell line (Myc-negative) was used in parallel as a compound specificity control.
# Viability of N-Myc positive (IMR32and NCI-H660) and negative (HO15.19) cells were determined using the CellTiter-Glo Luminescent Cell Viability Assay (Promega cat. G7570) (Madison, WI, USA). Cells were seeded into a 96-well white plate with a clear bottom: 10,000 cells per well for the IMR32 cells cultured in EMEM supplemented with 10% FBS, 2000 HO15.19 cells per well in Eagle’s minimum essential medium (EMEM) supplemented with 10% FBS, and 2000 cells per well for the NCI-H660 neuroendocrine cells cultured in RPMI supplemented 5% FBS, 1% Insulin-Transferrin-Selenium (Thermo Fisher, 41400-045), 10nM b-estradiol (Sigma, E8875), 10nM hydrocortisone (Sigma H0888) and 1% matrigel. Following 24 h incubation, the cells were treated with serial dilutions of the derivatives along with the respective parental compound starting at 25 μM for 72 h. Cell Titer Glo was added to each well at a ratio of 1:1 and incubated on a shaker at RT for 2 min. Luminescence and IC50 was measured with the TECAN InfiniteM200 plate reader (Männedorf, Switzerland).
# [1] = Microsomal stability assay; assay type: in vitro ADME, Mouse
# Protocol: A microsomal stability assay was performed using the Corning Gentest NADPH Regenerating System (Corning, #451220/41200) (Corning, NY, USA). Mouse liver microsomes (MLM) (Xenotech, M1000) (Kansas City, KS, USA) and compounds were diluted to a final concentration of 0.15 mg/mL and 1 μM respectively. These were prepared into a 500 μL solution with 100 mM potassium phosphate buffer (pH = 7.4). Imipramine was used as a control. NADPH solutions A and B were mixed in a 5:1 ratio, and 24 μL of the NADPH was added to each of the MLM/compound samples at 30 s intervals. At time points 10, 20, and 45 min, 100 μL of reaction was added to the stopping solution. Samples were centrifuged at 18,000× g and incubated at 4 °C for 10 min. Samples were then loaded onto a LC-MS 96-well plate for analysis.
# N-Myc-Max heterodimer = target: T2, N-Myc-Max heterodimer (Homo sapiens, UniProt P04198+P61244); experiment: Proximity ligation assay (PLA) in LNCaP-NMYC cells; assay type: cell-based; conditions: 10 µM, 72 h
# T2 construct: expressed in transfected cells; host or cells: LNCaP-NMYC cells (gift from David Rickman)
# Protocol: To confirm that 70619 could disrupt the binding of N-Myc-Max DBD to DNA, we performed a bio-layer interferometry (BLI) assay where we immobilized biotinylated E-box sequence on streptavidin sensors, and we evaluated recombinant N-Myc-Max binding to the DNA in the presence of increasing concentrations of VPC-70619. […] We observed a similar number of interactions when comparing the ratio of signal per nuclei in the presence or absence of the compound.
# LNCaP-NMYC cells were seeded on coverslips at a density of 10^5 cells per well of a 6-well plate. After incubation for 24 h the cells were treated with 10 μM of either 10074-G5 or 70619 for 72 h. The coverslips were fixed with methanol:acetone (3:1) and incubated with primary antibodies n-Myc Antibody (NMYC-1) (Novus Biologicals NB200-109) (Littleton, CO, USA) and MAX Antibody (C-17) (Santa Cruz sc-197) (Dallas, TX, USA) overnight at 4 °C. PLA was conducted using the Duolink In Situ Detection Reagents Red kit (Sigma DUO92008) according to the manufacturer’s protocol. The coverslips were then mounted on slides with VECTASHIELD mounting media with DAPI, and images were taken on ZEISS 780 confocal microscope at 40× magnification.
# T1 sequence (P04198 379-464 limits assumed): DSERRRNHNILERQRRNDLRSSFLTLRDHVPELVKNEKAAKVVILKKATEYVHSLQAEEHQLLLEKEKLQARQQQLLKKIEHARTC
# T1 sequence (P61244 12-93 isoform P61244-2 limits assumed): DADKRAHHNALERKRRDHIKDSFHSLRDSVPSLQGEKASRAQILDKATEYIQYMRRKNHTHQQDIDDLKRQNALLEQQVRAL
# T2 sequence (P04198 whole entry): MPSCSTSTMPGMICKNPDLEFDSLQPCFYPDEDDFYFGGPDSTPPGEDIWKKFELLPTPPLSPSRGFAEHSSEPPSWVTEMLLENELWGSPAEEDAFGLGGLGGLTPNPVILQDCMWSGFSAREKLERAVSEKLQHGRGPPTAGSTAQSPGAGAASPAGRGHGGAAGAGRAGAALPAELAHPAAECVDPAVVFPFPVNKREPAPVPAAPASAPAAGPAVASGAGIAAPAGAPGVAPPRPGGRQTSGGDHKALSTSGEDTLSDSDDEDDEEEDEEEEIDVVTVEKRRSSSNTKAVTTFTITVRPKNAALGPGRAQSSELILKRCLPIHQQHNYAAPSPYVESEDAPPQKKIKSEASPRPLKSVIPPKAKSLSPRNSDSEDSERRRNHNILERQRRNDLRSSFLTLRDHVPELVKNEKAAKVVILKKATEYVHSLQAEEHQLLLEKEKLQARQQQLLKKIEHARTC
# T2 sequence (P61244 whole entry): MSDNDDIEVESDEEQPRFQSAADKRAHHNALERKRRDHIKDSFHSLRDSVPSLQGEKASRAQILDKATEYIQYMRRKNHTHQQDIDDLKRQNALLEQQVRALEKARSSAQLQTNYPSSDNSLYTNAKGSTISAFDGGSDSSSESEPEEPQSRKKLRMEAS
structure (smiles),measurement,setting,value
N#Cc1ccc(NNC(=O)c2ccc(C#N)c(Cl)c2)c(C(F)(F)F)c1 [compound 70619],binding to N-Myc-Max complex (in words),N-Myc-Max complex,bind weakly
same,binding to N-Myc-Max complex (in words),N-Myc-Max complex; listed as VPC-70619,somewhat weak affinity
same,Kd,"N-Myc-Max complex; estimate, limited solubility in assay buffer, read-out: dissociation constant",> 130 µM
same,inhibition at 10 µM,IMR32 cells,99.4%
same,increase in microsomal stability compared to VPC-70551,[1]; half-life 2310 min vs 140 min,15 fold
same,half-life at 1 μM,"[1]; mouse, mouse liver microsomes, pH 7.4, mouse liver microsomes, 1 µM compound, read-out: microsomal half-life (T1/2)",2310 min
same,effect on N-Myc-Max heterodimer interactions (in words),N-Myc-Max heterodimer,does not disrupt Myc-Max complexes
same,effect on N-Myc-Max heterodimer interactions (in words),N-Myc-Max heterodimer; listed as VPC-70619,does not disrupt the N-Myc-Max heterodimer formation

# — PMC8910697, “Development of VPC-70619, a Small-Molecule N-Myc Inhibitor as a Potential Therapy for Neuroendocrine Prostate Cancer” (International Journal of Molecular Sciences, 2022)
